Test results as given in PMC8584447, “Adhesive Antimicrobial Peptides Containing 3,4-Dihydroxy-L-Phenylalanine Residues for Direct One-Step Surface Coating” (International Journal of Molecular Sciences, 2021).
Ends that are not written are not given here.

Columns and labels:
E. coli ATCC 27325 = format: cell-based, Escherichia coli; settings: ATCC 27325, 18 h
Method: The MICs of the designed peptides were measured against the gram-negative bacterium E. coli ATCC 27325 according to the general guidelines of the Clinical and Laboratory Standards Institute, with some modifications based on a study of cationic AMPs. Briefly, a single bacterial colony was cultured in Mueller−Hinton broth (MHB; Sigma–Aldrich) until the mid-log phase (optical density of 0.4–0.6 at 600 nm). The bacterial suspension was diluted with fresh MHB to a concentration of 10^6 colony-forming units (CFU)/mL. Next, two-fold serial dilutions (128 to 1 μM) of the peptides were prepared in MHB and mixed (1:1) with the diluted bacterial culture, resulting in a final peptide concentration ranging from 64 to 0.5 μM and final bacteria concentration of 5 × 10^5 cells/mL. The mixtures were placed into 96-well polypropylene microtiter plates (Corning), with sterile MHB used as a negative control and MHB inoculated with bacterial cells used as growth control. The plates were incubated for 18 h at 37 °C with shaking at 200 rpm. The MIC values were determined as the lowest concentrations at which no bacterial growth was recorded at 600 nm using a microplate reader (Infinite 200 Pro; Tecan, Männedorf, Switzerland).

E. coli [1] = experiment: Antibacterial activity of peptide-coated surfaces (ISO 22196, modified), E. coli; format: cell-based, Escherichia coli
Method: (§1) To coat the designed peptides on a surface, 200 μL of freshly prepared 200 μM peptide solution (10 mM Tris-HCl, pH 8.5) was added into a 24-well PS plate and incubated for 10 min at 37 °C. After coating, the plates were rinsed with deionized water and air-dried. The PS, Ti, and PDMS pieces (1 cm × 1 cm) were coated in the same manner. For the PD-mediated AMP coating, a layer of PD was first coated on a 24-well PS plate by dip coating, as previously described, with minor modifications. Each PS well was treated with 2 mg/mL dopamine solution (10 mM Tris-HCl, pH 8.5) and incubated for approximately 1 h at 37 °C. The PD-coated wells were washed twice with deionized water to remove excess dopamine. To attach the NKC peptide to a PD-coated 24-well PS plate, NKC peptide solution (200 μM) was dispensed into each well, and the plate was incubated at 37 °C for 24 h. The wells with the immobilized peptide were then washed twice with deionized water.
(§2) The bactericidal activities of the AMP-coated surfaces were evaluated following the International Organization for Standardization 22196 standard with slight modifications. Overnight bacterial suspensions were subcultured in fresh LB until the mid-log phase and diluted to 10^6 cells/mL with 500-fold diluted LB. The AMP-coated and uncoated substrates (1 cm × 1 cm) were placed in 24-well plates, and 10 μL of the bacterial suspension was distributed over the substrate surface. The substrates were covered with a piece of polyethylene film (1 cm × 1 cm) and incubated for 2 h (37 °C, relative humidity: >90%). Subsequently, SCDLP broth (990 μL) was added, and viable cells were retrieved and serially diluted. Aliquots (100 μL) of the bacterial suspension were withdrawn and plated for colony counting.

S. aureus [2] = experiment: Bacterial adhesion / biofilm assay (live/dead staining, confocal microscopy), S. aureus; format: cell-based, Staphylococcus aureus; settings: 10^7 cells/mL, 24 h, 37 °C, SYTO9/PI staining
Method: (§3) The viability of bacterial cells adhered to the substrate surface was evaluated using the Live/Dead BacLight Bacterial Viability Kit (Thermo Fisher Scientific) according to the manufacturer’s instructions. Briefly, 200 μL of bacterial suspensions adjusted to 10^7 cells/mL were incubated on uncoated or peptide-coated chambered cover glasses (Thermo Fisher Scientific) at 37 °C for 24 h. After 24 h, planktonic cells were removed, and the surfaces were washed with 0.85% (w/v) NaCl buffer. Cells attached to the surfaces were stained for 15 min in the dark with BacLight stock solution containing two fluorescent nucleic acid stains, SYTO9 and propidium iodide (PI). After staining, the surfaces were washed with 0.85% NaCl solution, and the stained cells were photographed using confocal laser-scanning microscopy (LSM 5 LIVE DuoScan, Carl Zeiss, Jena, Germany) using a 63× objective. The excitation wavelengths were 488 and 561 nm for SYTO9 and PI, respectively.

S. aureus [3] = experiment: Antibacterial activity of peptide-coated surfaces (ISO 22196, modified), S. aureus; format: cell-based, Staphylococcus aureus; settings: NKC-DOPA5-coated PS, Ti and PDMS (1 cm × 1 cm), 10 μL of 10^6 cells/mL, 37 °C
Method: as §1
(§4) The bactericidal activities of the AMP-coated surfaces were evaluated following the International Organization for Standardization 22196 standard with slight modifications. Overnight bacterial suspensions were subcultured in fresh LB until the mid-log phase and diluted to 10^6 cells/mL with 500-fold diluted LB. […]

P. aeruginosa [4] = experiment: Bacterial adhesion / biofilm assay (live/dead staining, confocal microscopy), P. aeruginosa; format: cell-based, Pseudomonas aeruginosa; settings: 10^7 cells/mL, 24 h, 37 °C, SYTO9/PI staining
Method: as §3

P. aeruginosa [5] = experiment: Antibacterial activity of peptide-coated surfaces (ISO 22196, modified), P. aeruginosa; format: cell-based, Pseudomonas aeruginosa; settings: NKC-DOPA5-coated PS, Ti and PDMS (1 cm × 1 cm), 10 μL of 10^6 cells/mL, 37 °C
Method: as §1, §4

E. coli [6] = experiment: Bacterial adhesion / biofilm assay (live/dead staining, confocal microscopy), E. coli; format: cell-based, Escherichia coli; settings: 10^7 cells/mL, 24 h, 37 °C, SYTO9/PI staining
Method: as §3

P. aeruginosa [7] = experiment: Rat subcutaneous implant infection model; format: in vivo, Sprague–Dawley rats
Method: In vivo antibacterial activity was evaluated using specific pathogen-free Sprague–Dawley male rats (7 weeks old, weighing 200−220 g). All animal experiments were approved by the Animal Ethics Committee of KNOTUS, Incheon, Korea (approval no. 18-KE-383) and performed following the guidelines for the care and use of laboratory animals of KNOTUS. All rats were housed in individually ventilated cages and acclimated for 7 days before surgery. For implantation, the rats were anesthetized by intramuscular injection of Zoletil® (30 mg/kg; Virbac, Carros, France), and the dorsum was shaved and disinfected with 70% isopropyl alcohol. Approximately 1 cm wide incisions were made parallel to the spine and extended to the subdermal fascia. For the control group, uncoated Ti screws or PDMS slides were implanted into the left flank, whereas AMP-coated implants were inserted into the right flank. The wounds were sutured, and the implant site was marked on the skin. Setting the skin mark as a guide, 100 μL of a p. aeruginosa inoculum containing 2.5 × 10^8 cells/mL was injected subcutaneously. The rats were euthanized by CO2 asphyxia at 5 days after the bacterial challenge. The implants were removed using sterile tools and placed in sterile tubes containing 1 mL of PBS. For the detachment of bacteria from the implant materials, the tubes were sonicated for 15 min, and 10-fold serial dilutions of the bacterial solution were plated on LB agar for CFU determination. The tissues surrounding the implants were carefully removed, separately immersed in 1 mL of PBS, and homogenized. Bacteria in the tissues were quantified by serial dilution. For histological examination, the tissues surrounding the implants were formaldehyde-fixed, paraffin-embedded, and then stained with hematoxylin and eosin [26].

E. coli [8] = experiment: Stability assessment of surface-coated peptide (antimicrobial activity after storage); format: cell-based, Escherichia coli; settings: for antimicrobial activity after storage: coated PS stored at 25 °C, (Nc−N)/Nc×100, mean ± SD
Method: as §2
To evaluate the stability of the surface-coated peptides, antimicrobial activity was determined as described above after incubating the AMP-coated PS plates for 1, 7, 14, 21, 28, 56, and 84 days at 4 °C and 25 °C and with the formula below: Antimicrobial activity (%)=Nc−N/Nc×100 where Nc and N represent the number of colonies after incubation on the control and AMP-coated substrates, respectively.

[9] = peptide-coated 24-well PS, 10^6 cells/mL E. coli, 2 h, colony counting
[10] = coated PDMS implants, 5 days post-inoculation

Method for HaCaT cells: To evaluate the toxicity of the peptides coated on the substrates towards human skin, the mitochondrial dehydrogenase activity of HaCaT keratinocytes was measured in a modified 3-(4,5-dimethyl-2-thiazolyl)-2,5-diphenyl-2H-tetrazolium bromide (MTT) reduction assay. HaCaT cells were routinely cultured in Dulbecco’s modified Eagle’s medium (DMEM; Lonza, Basel, Switzerland) with 10% fetal bovine serum (Lonza) and 1% penicillin–streptomycin solution (Thermo Fisher Scientific) in humidified 5% CO2 at 37 °C. The cultured cells were washed twice with phosphate-buffered saline (PBS; pH 7.4) and detached by trypsinization. The harvested HaCaT cells were diluted to 5 × 10^4 cells/mL, seeded into 12-well culture plates, and incubated in a humidified incubator with 5% CO2. After incubation, the medium was changed to serum-free DMEM, and uncoated or AMP-coated pieces (PS/Ti/PDMS; 1 cm × 1 cm) were placed upside down on the HaCaT cells. After 24 h, the pieces were removed, and MTT solution in 1 mL of DMEM was added to each well. […] The plate was incubated overnight, and the absorbance was measured at 570 nm using a microplate reader (Tecan Infinite 200 Pro). […] Cell viability was expressed as the percentage of surviving cells on the coated substrates relative to those on the uncoated substrates.

Substance: APKAMKLLKKLLKLQKKGI-NH2 (C-terminus assumed) [NKC, reference compound]
- MIC (E. coli ATCC 27325): 1 µM
- reduction of the cell count (E. coli [1]; NKC attached via polydopamine (PD) to PS plate, E. coli, 2 h): approximately 4.2 log

Substance: APKAMKLLKKLLKLQKKGIGGGGSGGGGSY [NKC-DOPA1, NKC with glycine–serine linker and 1 DOPA moiety at the C-terminus]
- bacterial growth on coated surface (in words) (E. coli [1]; [9]): hardly inhibited bacterial growth

Substance: APKAMKLLKKLLKLQKKGIGGGGSGGGGSYYY [NKC-DOPA3, NKC with glycine–serine linker and 3 DOPA moieties at the C-terminus]
- log reduction in the cell count (E. coli [1]; [9]): 5.7 log

Substance: APKAMKLLKKLLKLQKKGIGGGGSGGGGSYYYYY [NKC-DOPA5, NKC with glycine–serine linker and 5 DOPA moieties at the C-terminus]
- biofilm formation on coated surface (S. aureus [2]): remarkably inhibited biofilm formation
- number of viable bacterial cells after 2 h (S. aureus [3]): zero
- biofilm formation on coated surface (P. aeruginosa [4]): remarkably inhibited biofilm formation
- number of viable bacterial cells after 2 h (P. aeruginosa [5]): zero
- biofilm formation on coated surface (E. coli [6]): remarkably inhibited biofilm formation
- decrease in number of bacteria recovered from surrounding tissues vs pristine (P. aeruginosa [7]; PDMS implants, 5 days post-inoculation): approximately 3.8 log CFU/g
- difference in number of bacteria in surrounding tissues, pristine vs coated (P. aeruginosa [7]; Ti implants, 5 days post-inoculation): 3 log CFU/g
- implants from which microorganisms were absent (P. aeruginosa [7]; [10]): three of the five implants
- median number of bacteria recovered from surrounding tissues (P. aeruginosa [7]; [10]): 0.9 log CFU/g
- average bacterial count per implant (P. aeruginosa [7]; coated PDMS implants, five implants, 5 days post-inoculation): 0.92 log CFU/mL per implant
- microbial loads of the two colonised implants (P. aeruginosa [7]; coated PDMS, the other two of five implants, 5 days post-inoculation): 2.0−2.6 log CFU/mL
- number of bacteria from tissues surrounding the implants (P. aeruginosa [7]; coated Ti implants, 5 days post-inoculation): 2.7 log CFU/g
- microorganisms on implants (P. aeruginosa [7]; coated Ti screw, five implants, 5 days post-inoculation of P. aeruginosa): no microorganisms were observed
- inflammation of tissues around the implants (P. aeruginosa [7]; coated Ti screws and PDMS, 5 days post-inoculation, gross observation): without apparent inflammation
- change in antimicrobial activity during storage (E. coli [8]; coated PS plate stored at 4 °C for 84 days): no change
- antimicrobial activity after storage (E. coli [8]; 7 days): 99.75 ± 0.16%
- antimicrobial activity after storage (E. coli [8]; 84 days): 99.17 ± 3.25%
- cell viability (HaCaT cells): > 90%
- number of viable bacterial cells after 2 h (E. coli [1]; NKC-DOPA5-coated PS, Ti and PDMS (1 cm × 1 cm), 10 μL of 10^6 cells/mL, 37 °C): zero
- bacterial growth on coated surface (in words) (E. coli [1]; [9]): No bacterial growth was observed

Substance: APKAMKLLKKLLKLQKKGIGGGGSGGGGSYYYYYYY [NKC-DOPA7, NKC with glycine–serine linker and 7 DOPA moieties at the C-terminus]
- bacterial growth on coated surface (in words) (E. coli [1]; [9]): No bacterial growth was observed
